From patent US9062066B2, “Anti-inflammatory compound having inhibitory activity against multiple tyrosine kinases and pharmaceutical composition containing same” (KOREA INSTITUTE OF SCIENCE AND TECHNOLOGY, priority 2010, dated 2015)
Read-outs that look alike come from different tables or passages of the source.

Legend:
[1] = target: Hck tyrosine kinase (Homo sapiens (Human), UniProt P08631); experiment: in vitro Hck tyrosine kinase inhibition; assay type: biochemical; settings: read-out: % inhibition against Hck
Chain of Hck tyrosine kinase (P08631 whole entry): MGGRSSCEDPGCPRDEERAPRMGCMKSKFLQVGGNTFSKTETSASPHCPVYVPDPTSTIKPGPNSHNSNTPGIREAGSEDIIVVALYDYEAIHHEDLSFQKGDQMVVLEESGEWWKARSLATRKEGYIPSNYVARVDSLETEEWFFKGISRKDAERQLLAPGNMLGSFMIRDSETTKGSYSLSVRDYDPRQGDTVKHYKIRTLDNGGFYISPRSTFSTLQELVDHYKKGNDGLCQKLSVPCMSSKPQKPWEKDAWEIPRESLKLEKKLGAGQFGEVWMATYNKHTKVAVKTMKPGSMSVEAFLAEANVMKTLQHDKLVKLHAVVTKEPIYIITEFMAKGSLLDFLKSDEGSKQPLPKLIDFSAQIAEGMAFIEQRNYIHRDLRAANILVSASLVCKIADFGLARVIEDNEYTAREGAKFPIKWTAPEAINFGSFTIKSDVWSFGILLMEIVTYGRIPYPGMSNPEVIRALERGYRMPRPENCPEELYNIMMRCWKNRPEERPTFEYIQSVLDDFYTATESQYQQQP

[2] = system: TNF-α synthesis in J744A.1 macrophages; experiment: inhibition of TNF-α synthesis in LPS-activated macrophages (ELISA); assay type: cell-based; settings: Macrophage, read-out: Inhibition (%) of TNF-α synthesis
[3] = system: oxazolone-induced skin inflammation of Balb/C mouse ears; experiment: mouse skin inflammatory model induced by oxazolone (ear thickness); assay type: in vivo; settings: 20 ul of 0.1% compound topical on ear, 36 hours after oxazolone
Protocol: The compounds of the present invention were evaluated for their effective anti-inflammatory activity using a skin inflammatory animal model of 8 weeks old Balb/C mouse ears induced by oxazolone. […] After 4 days, the thickness of ear was measured using a caliper for the thickness value of ear before the induction of inflammation. […] After 36 hours, the thickness of ear was measured for the increased thickness induced by inflammation. […] The average value was obtained in each group (n=4).

[4] = system: α-smooth muscle actin protein expression in skin fibroblast cells; experiment: inhibition of α-smooth muscle actin expression in fibroblast activated by type I collagen and TGF-β1 (western blotting); assay type: cell-based, Balb/C mouse; settings: Mus musculus, read-out: Inhibition (%) of α-smooth muscle actin increase
Excerpt: When fibroblast, […] alpha smooth muscle cells are converted to myofibroblast by activation, one of characteristic features is that α-smooth muscle actin protein expression is increased. Also myoblast cells with the increased α-smooth muscle actin expression have a character of an increased migration. These phenomena appear together with the activation of inflammatory cells and the activated myoblast-type cells are known to contribute directly to the pathology of inflammatory diseases. […] In this experiment, the expression level of alpha smooth muscle actin can be quantificated by measuring the density of α-smooth muscle actin protein band with densitometer after developing the X-ray film of chemiluminescence signal in western blotting experiment.

[5] = target: c-Src tyrosine kinase (Homo sapiens (Human), UniProt P12931); experiment: in vitro c-Src tyrosine kinase inhibition (32P-ATP, poly(D4Y)n substrate); assay type: biochemical; settings: read-out: % inhibition against c-Src
Chain of c-Src tyrosine kinase (P12931 whole entry, looked up, the tested form may be a part): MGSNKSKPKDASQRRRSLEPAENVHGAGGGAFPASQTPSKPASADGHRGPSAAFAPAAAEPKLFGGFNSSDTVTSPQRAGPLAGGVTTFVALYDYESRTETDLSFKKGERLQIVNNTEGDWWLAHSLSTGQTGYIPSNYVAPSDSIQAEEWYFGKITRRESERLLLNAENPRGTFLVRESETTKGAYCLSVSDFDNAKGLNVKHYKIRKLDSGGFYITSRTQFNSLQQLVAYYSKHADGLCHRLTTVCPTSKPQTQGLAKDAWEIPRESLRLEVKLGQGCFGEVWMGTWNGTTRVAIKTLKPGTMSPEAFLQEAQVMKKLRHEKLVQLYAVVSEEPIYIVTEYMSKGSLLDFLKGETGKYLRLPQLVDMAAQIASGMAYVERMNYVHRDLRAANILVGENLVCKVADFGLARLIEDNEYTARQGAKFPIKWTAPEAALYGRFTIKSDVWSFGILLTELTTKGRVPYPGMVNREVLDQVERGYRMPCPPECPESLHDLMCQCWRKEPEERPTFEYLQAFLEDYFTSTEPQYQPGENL

[6] = target: DDR2 tyrosine kinase (Homo sapiens (Human), UniProt Q16832); experiment: in vitro DDR2 tyrosine kinase inhibition (GST-fused kinase domain); assay type: biochemical; settings: read-out: % inhibition against DDR2
Chain of DDR2 tyrosine kinase (Q16832 563-849): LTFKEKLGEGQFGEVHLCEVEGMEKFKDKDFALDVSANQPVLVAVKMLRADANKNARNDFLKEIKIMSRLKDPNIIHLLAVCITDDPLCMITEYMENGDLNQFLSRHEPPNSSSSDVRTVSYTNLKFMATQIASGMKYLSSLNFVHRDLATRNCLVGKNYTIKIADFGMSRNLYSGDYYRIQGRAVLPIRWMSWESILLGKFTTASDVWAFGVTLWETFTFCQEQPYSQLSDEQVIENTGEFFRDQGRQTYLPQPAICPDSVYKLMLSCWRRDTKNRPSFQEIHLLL

[7] = target: DDR1 tyrosine kinase (Homo sapiens (Human), UniProt Q08345); experiment: in vitro DDR1 tyrosine kinase inhibition (GST-fused kinase domain); assay type: biochemical; settings: read-out: % inhibition against DDR1
Chain of DDR1 tyrosine kinase (Q08345 610-905): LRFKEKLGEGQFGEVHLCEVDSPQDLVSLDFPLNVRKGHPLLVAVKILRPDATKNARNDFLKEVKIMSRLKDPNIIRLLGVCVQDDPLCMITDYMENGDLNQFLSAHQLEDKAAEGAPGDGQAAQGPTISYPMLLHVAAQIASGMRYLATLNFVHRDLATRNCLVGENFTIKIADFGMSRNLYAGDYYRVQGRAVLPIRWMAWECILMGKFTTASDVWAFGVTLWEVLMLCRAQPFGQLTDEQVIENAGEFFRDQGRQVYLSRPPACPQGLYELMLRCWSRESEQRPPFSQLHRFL

[8] = target: Lyn tyrosine kinase (Homo sapiens (Human), UniProt P07948); experiment: in vitro Lyn tyrosine kinase inhibition; assay type: biochemical; settings: read-out: % inhibition against Lyn
Chain of Lyn tyrosine kinase (P07948 whole entry): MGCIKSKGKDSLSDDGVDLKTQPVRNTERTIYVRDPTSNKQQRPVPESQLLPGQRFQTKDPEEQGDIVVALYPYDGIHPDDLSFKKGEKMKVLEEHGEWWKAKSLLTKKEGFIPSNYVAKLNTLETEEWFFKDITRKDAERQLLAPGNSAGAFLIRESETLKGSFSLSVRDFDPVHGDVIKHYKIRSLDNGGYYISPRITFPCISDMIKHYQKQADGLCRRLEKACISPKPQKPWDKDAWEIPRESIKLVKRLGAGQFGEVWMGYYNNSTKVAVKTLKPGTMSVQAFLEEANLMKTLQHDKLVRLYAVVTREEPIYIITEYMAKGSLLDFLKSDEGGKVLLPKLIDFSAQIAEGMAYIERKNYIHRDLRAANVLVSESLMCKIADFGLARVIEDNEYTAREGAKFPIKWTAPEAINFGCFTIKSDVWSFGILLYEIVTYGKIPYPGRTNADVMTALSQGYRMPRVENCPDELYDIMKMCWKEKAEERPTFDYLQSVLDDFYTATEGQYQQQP

[9] = system: mouse skin fibroblast; experiment: inhibition of migration of activated fibroblast (scratch wound); assay type: cell-based; settings: read-out: Inhibition (%) of migration of activated fibroblast
Protocol: The straight line of regular width was made using a micro pipette tip for a scratch wound on the mono-layer culture, and then the culture was exchanged to DMEM medium and incubated with 10 ng/ml of TGF-β1 in cell culture incubator of 37° C. for 24 hours. The cultured cells were fixed using formalin and stained with crystal violet. Photo-pictures were taken at 100× magnification in five location selected randomly in the scratched wound site of each stained culture dish and then the number of the cells moved into the scratched wound area was counted and averaged.

[10] = target: Fgr tyrosine kinase (Homo sapiens (Human), UniProt P09769); experiment: in vitro Fgr tyrosine kinase inhibition; assay type: biochemical; settings: read-out: % inhibition against Fgr
Chain of Fgr tyrosine kinase (P09769 whole entry): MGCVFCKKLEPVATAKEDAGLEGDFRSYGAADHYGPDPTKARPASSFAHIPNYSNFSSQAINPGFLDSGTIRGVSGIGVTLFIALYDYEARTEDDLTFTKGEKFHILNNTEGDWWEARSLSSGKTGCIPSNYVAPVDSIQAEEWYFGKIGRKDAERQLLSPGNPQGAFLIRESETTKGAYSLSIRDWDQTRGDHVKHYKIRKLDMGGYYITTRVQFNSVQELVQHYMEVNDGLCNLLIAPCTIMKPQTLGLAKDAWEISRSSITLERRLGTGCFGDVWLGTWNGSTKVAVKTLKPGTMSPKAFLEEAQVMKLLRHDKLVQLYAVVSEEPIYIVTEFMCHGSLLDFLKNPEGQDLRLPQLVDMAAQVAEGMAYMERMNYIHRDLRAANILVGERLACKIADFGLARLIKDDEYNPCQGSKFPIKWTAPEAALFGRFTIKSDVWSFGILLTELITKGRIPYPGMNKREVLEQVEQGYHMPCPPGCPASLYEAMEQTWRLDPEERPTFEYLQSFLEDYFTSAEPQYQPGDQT

[11] = system: NO synthesis in J744A.1 macrophage; experiment: inhibition of nitric oxide (NO) synthesis in LPS-activated macrophages (Griess reagent); assay type: cell-based; settings: read-out: Inhibition (%) of NO synthesis
[12] = 10 μM compound, 100 ng/ml LPS, 6 hours
[13] = 0.5 uM compound, 10 ng/ml TGF-β1, 48 hours, type I collagen
[14] = 0.5 uM compound, 10 ng/ml TGF-β1, 24 hours

Compound	inhibition at 1 µM ([1]; 1 uM compound) [%]	inhibition at 10 µM [2, 12] [%]	Inhibition (%) of increase of ear thickness [3] [%]	inhibition at 0.5 µM [4, 13] [%]	inhibition at 1 µM ([5]; 1 uM compound) [%]	inhibition at 1 µM ([6]; 1 uM compound) [%]	inhibition at 1 µM ([7]; 1 uM compound) [%]	inhibition at 1 µM ([8]; 1 uM compound) [%]	inhibition at 0.5 µM [9, 14] [%]	inhibition at 1 µM ([10]; 1 uM compound) [%]	inhibition at 10 µM ([11]; 10 μM compound, LPS, 24 hours) [%]	inhibition at 10 µM ([2]; 6 h) [%]	inhibition at 10 µM ([11]; 24 h) [%]	also measured
CN1CCN(Cc2cccc(-c3cc4ncnc(Nc5cccc(O)c5)c4s3)c2)CC1.Cl [LCB 03-0061, 3-(6-(3-((4-methylpiperazin-1-yl)methyl)phenyl)thieno[3,2-d]pyrimidin-4-ylamino)phenol]	> 80	91	55	68	> 80	> 80	> 80	> 80	44	> 80	92	–	–	–
Cl.Oc1cccc(Nc2ncnc3cc(-c4cccc(CN5CCOCC5)c4)sc23)c1 [LCB 03-0066, 3-(6-(3-(morpholinomethyl)phenyl)thieno[3,2-d]pyrimidin-4-ylamino)phenol]	> 80	93	67	75	> 80	> 80	> 80	> 80	54	> 80	87	–	–	–
Cl.Oc1cccc(Nc2ncnc3cc(-c4cccc(CN5CCCC5)c4)sc23)c1 [LCB 03-0062, 3-(6-(3-(pyrrolidin-1-ylmethyl)phenyl)thieno[3,2-d]pyrimidin-4-ylamino)phenol]	> 80	82	57	64	> 80	> 80	> 80	> 80	41	> 80	93	–	–	–
CN1CCN(Cc2ccc(-c3cc4ncnc(Nc5cccc(O)c5)c4s3)o2)CC1 [LCB 03-0087, 3-(6-(5-((4-methylpiperazin-1-yl)methyl)furan-2-yl)thieno[3,2-d]pyrimidin-4-ylamino)phenol]	> 70	–	43	29	> 70	> 70	> 70	> 70	24	> 70	–	68	83	–
Cl.Oc1cccc(Nc2ncnc3cc(-c4cccc(CN5CCCCC5)c4)sc23)c1 [LCB 03-0060, 3-(6-(3-(piperidin-1-ylmethyl)phenyl)thieno[3,2-d]pyrimidin-4-ylamino)phenol]	> 80	78	66	65	> 80	> 80	> 80	> 80	42	> 80	93	–	–	–
Cc1cc2cc(Nc3ccnc4cc(C(=O)N5CC[C@@H](O)C5)sc34)ccc2n1C(=O)NC1CC1 [Control compound 1, 5-[2-(3R-hydroxy-pyrrolidine-1-carbonyl)-thieno[3,2-b]pyridine-7-ylamino]-2-methyl-indole-1-carboxyacid cycloprophylamide, reference compound]	–	–	3	–	–	–	–	–	–	–	–	16	32	inhibition at 1 µM [1]: < 20%; inhibition at 0.5 µM ([4]; 48 h): 16%; inhibition at 1 µM [5]: < 20%; inhibition at 1 µM [6]: < 20%; inhibition at 1 µM [7]: < 20%; inhibition at 1 µM [8]: < 20%; inhibition at 0.5 µM ([9]; 24 h): 17%; inhibition at 1 µM [10]: < 20%
CCNCc1cccc(-c2cc3ncnc(Nc4cccc(O)c4)c3s2)c1.Cl [LCB 03-0065, 3-(6-(3-((ethylamino)methyl)phenyl)thieno[3,2-d]pyrimidin-4-ylamino)phenol]	> 80	79	52	58	> 80	> 70	> 70	> 80	35	> 80	84	–	–	–
Cl.Oc1cccc(Nc2ncnc3cc(-c4ccc(CN5CCCC5)cc4)sc23)c1 [LCB 03-0034, 3-(6-(4-(pyrrolidin-1-ylmethyl)phenyl)thieno[3,2-d]pyrimidin-4-ylamino)phenol]	> 70	75	29	67	> 80	> 80	> 80	> 80	32	> 80	90	–	–	–
CCNCc1ccc(-c2cc3ncnc(Nc4cccc(O)c4)c3s2)o1 [LCB 03-0091, 3-(6-(5-((ethylamino)methyl)furan-2-yl)thieno[3,2-d]pyrimidin-4-ylamino)phenol]	> 70	–	49	39	> 70	> 70	> 70	> 70	39	> 70	–	68	92	–
Oc1cccc(Nc2ccnc3cc(-c4cccc(CN5CCCC5)c4)sc23)c1 [LCB 03-0107, 3-(2-(3-(pyrrolidin-1-ylmethyl)phenyl)thieno[3,2-b]pyridin-7-ylamino)phenol]	> 70	–	59	71	> 70	> 80	> 80	> 70	58	> 70	–	45	81	–
CO[C@@H]1C[C@@H](CO)N(C(=O)c2cc3nccc(Nc4ccc5c(c4)cc(C)n5C(=O)NC4CC4)c3s2)C1 [Control compound 3, reference compound]	< 20	19	22	8	< 20	< 20	< 20	< 20	11	< 20	21	–	–	–
Oc1cccc(Nc2ncnc3cc(-c4ccc(CN5CCCC5)s4)sc23)c1 [LCB 03-0085, 3-(6-(5-(pyrrolidin-1-ylmethyl)thiophene-2-yl)thieno[3,2-d]pyrimidin-4-ylamino)phenol]	> 70	–	53	51	> 70	> 80	> 80	> 70	35	> 70	–	74	93	–
CCNCc1cccc(-c2cc3nccc(Nc4cccc(O)c4)c3s2)c1 [LCB 03-0112, 3-(2-(3-((ethylamino)methyl)phenyl)thieno[3,2-b]pyridin-7-ylamino)phenol]	> 80	–	68	71	> 80	> 80	> 80	> 80	38	> 80	–	46	81	–
